Here are results for one compound from patent US11225459B2, “Substituted bisphenylalkylurea compounds and methods” (TEXAS TECH UNIVERSITY SYSTEM, priority 2017, dated 2022).

The target in one assay is H2 receptor (Homo sapiens, UniProt P25021). Put plainly: H2 R inhibition (Ki). It is filed as binding. The settings on record: FIG. 6. An excerpt: FIG. 6 depicts a graph showing H2 R inhibition (Ki) of compound of the present disclosure designated as Formula I (AZ2-57).
Assay [1] concerns the target Dopamine Transporter (DAT) (Homo sapiens, UniProt Q01959). Briefly: DAT inhibition (Ki), in vitro. It is filed as binding. The following applies: FIG. 4. An excerpt:
FIG. 4 depicts a graph showing DAT inhibition (Ki) of compound of the present disclosure designated Formula I (AZ2-57).
In one embodiment, compound of the present disclosure Formula I (AZ2-57) is shown in in vitro studies to show DAT inhibition (see FIG. 4).

The next assay has as its system HUVEC cells. Briefly: Ca2+ release assay (HUVEC cells). It is filed as cell-based. The settings on record: FIG. 7. From the text:
FIG. 7 depicts a graph showing Ca2+ release assay (HUVEC cells) of compound of the present disclosure designated as Formula I (AZ2-57).
Unlike many other DAT inhibitors on the market, our compound has very limited interaction with other GPCR receptors, reducing potential CNS-induced toxicity. It is thus an embodiment of the present disclosure to further show effect on microglia-induced immune response (chronic inflammation), dopamine surge in the presence of Formula I (AZ2-57).

The target in the next assay is H1 receptor (Homo sapiens, UniProt P35367). Put plainly: H1 R inhibition (Ki). It is filed as binding. The following applies: FIG. 5. An excerpt:
FIG. 5 depicts a graph showing H1 R inhibition (Ki) of compound of the present disclosure designated as Formula I (AZ2-57).

H2 receptor, sequence (P25021 whole entry): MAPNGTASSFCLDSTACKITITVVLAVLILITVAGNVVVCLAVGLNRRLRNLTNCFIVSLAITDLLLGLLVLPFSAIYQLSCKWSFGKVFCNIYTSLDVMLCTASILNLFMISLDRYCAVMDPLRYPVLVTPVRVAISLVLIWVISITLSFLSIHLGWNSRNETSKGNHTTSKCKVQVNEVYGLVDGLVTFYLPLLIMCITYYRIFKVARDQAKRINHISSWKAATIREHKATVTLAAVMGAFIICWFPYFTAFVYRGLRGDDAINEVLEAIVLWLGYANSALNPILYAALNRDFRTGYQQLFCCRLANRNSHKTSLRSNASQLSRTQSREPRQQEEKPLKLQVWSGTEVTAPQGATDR
H1 receptor, sequence (P35367 whole entry): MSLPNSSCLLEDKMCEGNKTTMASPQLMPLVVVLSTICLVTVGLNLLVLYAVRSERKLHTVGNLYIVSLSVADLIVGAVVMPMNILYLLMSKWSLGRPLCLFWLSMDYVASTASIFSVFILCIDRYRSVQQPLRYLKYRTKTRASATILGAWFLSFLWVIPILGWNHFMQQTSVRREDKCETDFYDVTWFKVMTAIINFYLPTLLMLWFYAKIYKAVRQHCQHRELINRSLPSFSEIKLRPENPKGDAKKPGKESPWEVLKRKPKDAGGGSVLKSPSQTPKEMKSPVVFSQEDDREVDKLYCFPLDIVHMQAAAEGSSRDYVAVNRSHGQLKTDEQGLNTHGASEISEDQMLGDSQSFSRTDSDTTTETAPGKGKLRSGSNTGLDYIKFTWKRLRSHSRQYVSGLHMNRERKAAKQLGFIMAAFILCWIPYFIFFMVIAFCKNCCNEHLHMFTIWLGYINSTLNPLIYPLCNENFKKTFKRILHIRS
Dopamine Transporter (DAT), sequence (Q01959 whole entry, species assumed): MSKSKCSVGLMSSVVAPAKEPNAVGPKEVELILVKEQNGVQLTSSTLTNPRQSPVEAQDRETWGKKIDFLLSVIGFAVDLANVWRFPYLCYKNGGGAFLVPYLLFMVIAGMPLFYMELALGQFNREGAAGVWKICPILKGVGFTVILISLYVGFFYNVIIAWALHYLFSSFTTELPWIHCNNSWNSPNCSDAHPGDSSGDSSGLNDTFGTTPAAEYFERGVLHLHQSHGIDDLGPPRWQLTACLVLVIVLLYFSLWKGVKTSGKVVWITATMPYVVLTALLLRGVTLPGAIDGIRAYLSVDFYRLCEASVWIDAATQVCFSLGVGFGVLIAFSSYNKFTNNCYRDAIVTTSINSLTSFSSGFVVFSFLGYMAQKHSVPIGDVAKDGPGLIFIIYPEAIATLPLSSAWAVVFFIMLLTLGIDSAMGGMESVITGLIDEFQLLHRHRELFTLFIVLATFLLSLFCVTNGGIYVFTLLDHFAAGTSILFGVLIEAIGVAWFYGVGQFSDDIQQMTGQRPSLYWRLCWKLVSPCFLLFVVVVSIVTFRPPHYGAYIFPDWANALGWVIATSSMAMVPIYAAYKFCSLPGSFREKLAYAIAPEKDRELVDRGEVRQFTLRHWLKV

As a reminder, the Ki is a measure of affinity in units of concentration, obtained from inhibition or displacement. Lower therefore signals higher affinity. With `O=C(NCCCCC(c1ccc(F)cc1)c1ccc(F)cc1)Nc1ccc(Cl)cc1` [AZ2-57, 1-(5,5-bis(4-fluorophenyl)pentyl)-3-(4-chlorophenyl)urea], on H2 receptor, the Ki was found to be 1750 nM and the “inhibition of H2 receptor” value was 54%. Further, the affinity in assay [1] corresponds to a Ki of 5.2 nM. Moreover, the “Ca2+ release” value with HUVEC cells is given as “effectively manipulated”. For the same compound, on H1 receptor, affinity was put at a Ki of 32 nM and the “inhibition of H1 receptor” value is given as 65.4%.
